Numbered stars: 1 amine (or outer) side, 2 acyl side, 3 side chain; on linkers, the order of the positions; unused ones are H or OH. Bridge positions count the residues as written; N and C are the ends. Square brackets hold non-standard residues; d marks the D form. Peptide text beside a SMILES is read from it. * marks the point of attachment. X5 = O=C([C@H](Cc1cc(C2CCCC2)c(OCc2ccccc2)c(C2CCCC2)c1)N[*:1])[*:2]; X1 = O=C([C@H](Cc1ccc(OCc2ccccc2)c(C2CCCC2)c1)N[*:1])[*:2]; Benzoyl(4-Br) = O=C(c1ccc(Br)cc1)*; hArg = N=C(N)NCCCC[C@H](N)C(=O)O; pGlu = O=C1CC[C@@H](C(=O)O)N1; Nle = CCCC[C@H](N)C(=O)O; Bn = c1ccc(C*)cc1
How the values were obtained:
[1] = target: T1, hAPJ receptor (Homo sapiens, UniProt P35414); assay: BRET-based Gαi1 activation assay in HEK293 cells; assay type: cell-based
T1 construct: expressed in transfected cells; host or cells: HEK293, transient transfection with PEI
T1 sequence (P35414 1-380): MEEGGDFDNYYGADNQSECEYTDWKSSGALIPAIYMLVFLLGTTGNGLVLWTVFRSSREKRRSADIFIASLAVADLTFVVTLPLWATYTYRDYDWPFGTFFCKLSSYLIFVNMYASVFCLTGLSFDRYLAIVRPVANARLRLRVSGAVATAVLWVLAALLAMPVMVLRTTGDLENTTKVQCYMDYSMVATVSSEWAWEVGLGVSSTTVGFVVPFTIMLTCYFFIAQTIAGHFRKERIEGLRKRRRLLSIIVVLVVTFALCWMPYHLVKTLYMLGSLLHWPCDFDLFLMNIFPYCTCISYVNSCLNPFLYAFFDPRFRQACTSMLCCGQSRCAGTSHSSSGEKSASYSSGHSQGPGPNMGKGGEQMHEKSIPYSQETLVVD
Experimental: (§1) HEK293 cells were cultivated in high glucose DMEM medium having 10% FBS, 100 U/mL penicillin/streptomycin, 2 mM glutamine, and 20 mM HEPES at 37° C. in T175 flasks under humidified chamber at 5% CO2. […] Cells were then washed with phosphate-buffered saline (PBS) and 90 μL Hanks' balanced salt solution was added in each well. Then, cells were stimulated with analogs at concentrations ranging from 10^−5 M to 10^−11 M for 5 min at 37° C. (Gαi1) or for 30 min at room temperature (β-arrestin2). After stimulation, 5 μM of coelanterazine 400A was added to each well and the plate was read using the BRET^2 filter set of a GeniosPro plate reader (Tecan, Austria). The BRET ratio was determined as GFP10em/RlucIIem. Data were plotted and EC50 values were determined using GraphPad Prism 8. Each data point represents the mean±SEM of at least three different experiments each done in triplicate.

[2] = target: T1, hAPJ receptor; assay: BRET-based β-arrestin2 recruitment assay in HEK293 cells; assay type: cell-based
Experimental: as §1

[3] = HEK293, Table V, read-out: Gαi1 Emax
[4] = HEK293, Table V, read-out: ß-arr2 Emax

## CC(C)C[C@@H]1NC(=O)[C@H](CCCNC(=N)N)NC(=O)[C@@H](N)CC=CC[C@@H](C(=O)N[C@@H](CCCCN)C(=O)NCC(=O)N2CCC[C@H]2C(=O)N[C@H](Cc2ccc(O)cc2)C(=O)O)NC(=O)[C@H](CO)NC1=O [Compound 45, NH2-c[X-R-L-S-X]c-K-G-P-(D-Tyr)]
[1]; [3]
  Emax: 100%
[2]; [4]
  Emax: 54%

## CCCC[C@@H]1NC(=O)[C@@H](NC(=O)[C@H](CCCNC(=N)N)NC(=O)[C@H](CCCNC(=N)N)NC(=O)[C@@H]2CCC(=O)N2)CCC(=O)NCCCC[C@@H](C(=O)N[C@@H](Cc2c[nH]cn2)C(=O)N[C@@H](CO)C(=O)N[C@@H](CCCNC(=N)N)C(=O)N[C@H](C(=O)N2CCC[C@H]2C(=O)N[C@@H](Cc2ccccc2)C(=O)N2CCC[C@H]2C(=O)O)C(C)C)NC(=O)[C@@H]2CCCN2C1=O [Compound 75, Pyr-R-R-c[E-Nle-P-K]-H-S-R-V-P-F-P] ([pGlu]RRE[Nle]PKHSRVPFP-OH; lactam 4-7)
[2]
  EC50: 2020 ± 479 nM

## CCCC[C@H](NC(=O)[C@@H]1CCC(=O)NCCCC[C@H](N)C(=O)N[C@@H](CCCNC(=N)N)C(=O)N[C@@H](CCCNC(=N)N)C(=O)N1)C(=O)N1CCC[C@H]1C(=O)N[C@@H](CC(C)C)C(=O)N[C@@H](Cc1c[nH]cn1)C(=O)N[C@@H](CO)C(=O)N[C@@H](CCCNC(=N)N)C(=O)N[C@H](C(=O)N1CCC[C@H]1C(=O)N[C@@H](Cc1ccccc1)C(=O)N1CCC[C@H]1C(=O)O)C(C)C [Compound 72, c[K-R-R-E]-Nle-P-L-H-S-R-V-P-F-P] (H-KRRE[Nle]PLHSRVPFP-OH; lactam 1-4)
[1]
  EC50: 1.7 ± 0.4 nM
[2]
  EC50: 47 ± 2 nM

## CCCC[C@H](NC(=O)[C@@H]1CCCN1C(=O)CNC(=O)[C@H](CCCCN)NC(=O)[C@@H]1CC=CC[C@H](NC(=N)N)C(=O)N[C@@H](CCCNC(=N)N)C(=O)N[C@@H](CC(C)C)C(=O)N[C@@H](CO)C(=O)N1)C(=O)N1CCC[C@H]1C(=O)N[C@@H](Cc1ccccc1)C(=O)O [Compound 23, Guanidine-c[X-R-L-S-X]c-K-G-P-Nle-P-F]
[1]; [3]
  Emax: 103%
[2]; [4]
  Emax: 92%

## CC(C)C[C@@H]1NC(=O)[C@@H]2CCCN2C(=O)[C@@H](NC(=O)[C@H](CO)NC(=O)[C@H](CCCNC(=N)N)NC(=O)[C@H](CCCNC(=N)N)NC(=O)[C@@H]2CCC(=O)N2)CCC(=O)NCCCC[C@@H](C(=O)N[C@@H](CCCNC(=N)N)C(=O)N[C@H](C(=O)N2CCC[C@H]2C(=O)N[C@@H](Cc2ccccc2)C(=O)N2C[C@H](OCc3ccccc3)C[C@H]2C(=O)O)C(C)C)NC(=O)[C@H](Cc2c[nH]cn2)NC1=O [Compound 93, Pyr-R-R-S-[E-P-L-H-K]-R-V-P-F-Hyp(OBn)]
[1]
  EC50: 47 ± 3 nM
[2]
  EC50: 2200 ± 132 nM

## CC(C)C[C@@H]1NC(=O)[C@@H]2CCCN2C(=O)[C@@H](NC(=O)[C@H](CO)NC(=O)[C@H](CCCCNC(=N)N)NC(=O)[C@H](CCCNC(=N)N)NC(=O)[C@@H]2CCC(=O)N2)CCC(=O)NCCCC[C@@H](C(=O)N[C@@H](CCCNC(=N)N)C(=O)N[C@H](C(=O)N2CCC[C@H]2C(=O)N[C@@H](Cc2ccccc2)C(=O)N2CCC[C@H]2C(=O)O)C(C)C)NC(=O)[C@H](Cc2c[nH]cn2)NC1=O [Compound 91, Pyr-R-hR-S-[E-P-L-H-K]-R-V-P-F-P] ([pGlu]R[hArg]SEPLHKRVPFP-OH; lactam 5-9)
[1]
  EC50: 4.3 ± 1.1 nM
[2]
  EC50: 173 ± 20 nM

## CCCC[C@H](NC(=O)[C@@H]1CCCN1C(=O)[C@@H]1CCCCNC(=O)CC[C@H](NC(=O)[C@H](CC(C)C)NC(=O)[C@H](CCCNC(=N)N)NC(=O)[C@@H]2CCCN2C(=O)[C@H](CCCNC(=N)N)NC(=O)[C@H](CCC(N)=O)NC(=O)[C@H](CCCNC(=N)N)NC(=O)[C@H](CCCNC(=N)N)NC(=O)[C@H](Cc2ccccc2)NC(=O)[C@H](CCCCN)NC(C)=O)C(=O)N[C@@H](Cc2c[nH]cn2)C(=O)N[C@@H](CCCCN)C(=O)N1)C(=O)N1CCC[C@H]1C(=O)N[C@@H](Cc1ccc(OCc2ccccc2)c(C2CCCC2)c1)C(=O)O [Compound 63, Ac-K-F-R-R-Q-R-P-R-L-[E-H-K-K]-P-Nle-P-cypTyrOBn] (Ac-KFRRQRPRLEHKKP[Nle]P[X1]-OH; lactam 10-13)
[1]
  EC50: 5.48 nM
[2]
  EC50: 63.6 nM

## CC(C)C[C@@H]1NC(=O)[C@@H]2CCCN2C(=O)[C@@H](NC(=O)[C@H](CO)NC(=O)[C@H](CCCNC(=N)N)NC(=O)[C@H](CCCNC(=N)N)NC(=O)[C@@H]2CCC(=O)N2)CCC(=O)NCCCC[C@@H](C(=O)N[C@@H](CCCNC(=N)N)C(=O)N[C@H](C(=O)N2CCC[C@H]2C(=O)N[C@@H](Cc2ccccc2)C(=O)N2CCC[C@H]2C(=O)O)C(C)C)NC(=O)[C@H](Cc2c[nH]cn2)NC1=O [Compound 77, Pyr-R-R-S-c[E-P-L-H-K]-R-V-P-F-P]
[2]
  EC50: 247 ± 62 nM

## CCCC[C@H](NC(=O)[C@@H]1CCCN1C(=O)CNC(=O)[C@H](CCCCN)NC(=O)[C@@H]1CCNCC=CC[C@H](NC(=O)[C@H](CCCNC(=N)N)NC(=O)[C@@H]2CCC(=O)N2)C(=O)N[C@@H](CCCNC(=N)N)C(=O)N[C@@H](CC(C)C)C(=O)N[C@@H](CO)C(=O)N1)C(=O)N1CCC[C@H]1C(=O)N[C@@H](Cc1ccccc1)C(=O)O [Compound 18, Pyr-R-c[X-R-L-S-Alb]c-K-G-P-Nle-P-F]
[1]; [3]
  Emax: 100%
[2]; [4]
  Emax: 86%

## CC(C)C[C@@H]1NC(=O)[C@@H]2CCCN2C(=O)[C@@H](NC(=O)[C@H](CO)NC(=O)[C@H](CCCNC(=N)N)NC(=O)[C@H](CCCNC(=N)N)NC(=O)c2ccc(Br)cc2)CCC(=O)NCCCC[C@@H](C(=O)N[C@@H](CCCNC(=N)N)C(=O)N[C@H](C(=O)N2CCC[C@H]2C(=O)N[C@@H](Cc2ccccc2)C(=O)N2CCC[C@H]2C(=O)O)C(C)C)NC(=O)[C@H](Cc2c[nH]cn2)NC1=O [Compound 89, 4BrBz-R-R-S-[E-P-L-H-K]-R-V-P-F-P] ({Benzoyl(4-Br)}-RRSEPLHKRVPFP-OH; lactam 4-8)
[2]
  EC50: 50 ± 4 nM

## CCCC[C@H](NC(=O)[C@@H]1CCCN1C(=O)[C@@H]1CCCCNC(=O)CC[C@H](NC(=O)[C@H](CC(C)C)NC(=O)[C@H](CCCNC(=N)N)NC(=O)[C@@H]2CCCN2C(=O)[C@H](CCCNC(=N)N)NC(=O)[C@H](CCC(N)=O)NC(=O)[C@H](CCCNC(=N)N)NC(=O)[C@H](CCCNC(=N)N)NC(=O)[C@H](Cc2ccccc2)NC(=O)[C@H](CCCCN)NC(C)=O)C(=O)N[C@@H](Cc2c[nH]cn2)C(=O)N[C@@H](CCCCN)C(=O)N1)C(=O)N1CCC[C@H]1C(=O)N[C@@H](Cc1cc(C2CCCC2)c(OCc2ccccc2)c(C2CCCC2)c1)C(=O)O [Compound 65, Ac-K-F-R-R-Q-R-P-R-L-[E-H-K-K]-P-Nle-P-dcypTyrOBn] (Ac-KFRRQRPRLEHKKP[Nle]P[X5]-OH; lactam 10-13)
[2]
  EC50: > 10000 nM

## CCCC[C@H](NC(=O)[C@@H]1CCCN1C(=O)CNC(=O)[C@H](CCCCN)NC(=O)[C@@H]1CCN(S(=O)(=O)c2ccccc2[N+](=O)[O-])CC=CC[C@H](N)C(=O)N[C@@H](CCCNC(=N)N)C(=O)N[C@@H](CC(C)C)C(=O)N[C@@H](CO)C(=O)N1)C(=O)N1CCC[C@H]1C(=O)N[C@@H](Cc1ccccc1)C(=O)O [Compound 28, NH2-c[X-R-L-S-Alnb]c-K-G-P-Nle-P-F]
[1]; [3]
  Emax: 106%
[2]; [4]
  Emax: 82%

## CCCC[C@H](NC(=O)[C@@H]1CCCN1C(=O)[C@@H]1CCCCNC(=O)CC[C@H](NC(=O)[C@H](CC(C)C)NC(=O)[C@H](CCCNC(=N)N)NC(=O)[C@@H]2CCCN2C(=O)[C@H](CCCNC(=N)N)NC(=O)[C@H](CCC(N)=O)NC(=O)[C@H](CCCNC(=N)N)NC(=O)[C@H](CCCNC(=N)N)NC(=O)[C@H](Cc2ccccc2)NC(=O)[C@H](CCCCN)NC(C)=O)C(=O)N[C@@H](Cc2c[nH]cn2)C(=O)N[C@@H](CCCCN)C(=O)N1)C(=O)N1CCC[C@H]1C(=O)N[C@@H](Cc1ccc(OCc2ccccc2)cc1)C(=O)O [Compound 66, Ac-K-F-R-R-Q-R-P-R-L-[E-H-K-K]-P-Nle-P-TyrOBn] (Ac-KFRRQRPRLEHKKP[Nle]PY(Bn)-OH; lactam 10-13)
[2]
  EC50: 334 nM

## CC(C)C[C@@H]1NC(=O)[C@@H]2CCCN2C(=O)[C@@H](NC(=O)[C@H](CO)NC(=O)[C@H](CCCNC(=N)N)NC(=O)[C@H](CCCCNC(=N)N)NC(=O)[C@@H]2CCC(=O)N2)CCC(=O)NCCCC[C@@H](C(=O)N[C@@H](CCCNC(=N)N)C(=O)N[C@H](C(=O)N2CCC[C@H]2C(=O)N[C@@H](Cc2ccccc2)C(=O)N2CCC[C@H]2C(=O)O)C(C)C)NC(=O)[C@H](Cc2c[nH]cn2)NC1=O [Compound 90, Pyr-hR-R-S-[E-P-L-H-K]-R-V-P-F-P]
[2]
  EC50: 394 ± 47 nM

## CCCC[C@H](NC(=O)[C@@H]1CCCN1C(=O)CNC(=O)[C@H](CCCCN)NC(=O)[C@@H]1CCN(S(=O)(=O)c2ccccc2[N+](=O)[O-])CC=CC[C@H](NC(=O)[C@H](CCCNC(=N)N)NC(=O)[C@@H]2CCC(=O)N2)C(=O)N[C@@H](CCCNC(=N)N)C(=O)N[C@@H](CC(C)C)C(=O)N[C@@H](CO)C(=O)N1)C(=O)N1CCC[C@H]1C(=O)N[C@@H](Cc1ccccc1)C(=O)O [Compound 16, Pyr-R-c[X-R-L-S-Alnb]c-K-G-P-Nle-P-F]
[1]; HEK293, read-out: Gαi1 Emax
  Emax: 102%
[2]; HEK293, read-out: ß-arr2 Emax
  Emax: 98%
